Legend:
[1] = HPLC assay of ivermectin before and after Gamma irradiation; assay type: physicochemical
Source text: The inventors have also determined that use of the polymer in the amorphous solid dispersion of ivermectin protects the ivermectin from degradation that occurs during Gamma irradiation, heat sterilization or e-beam sterilization. Ophthalmic formulations must be sterilized and Gamma irradiation, heat sterilization or e-beam sterilization are suitable methods for sterilization because other methods, such as filtration, are not suitable for a suspension formulation. The amorphous solid dispersions for Examples 1-3 were tested to determine the extent that the polymer protects the ivermectin during Gamma irradiation. For preliminary tests, the amorphous ivermectin solid dispersions were sterilized by Gamma irradiation at 25 kGy for 22 hours in a Precisa 22 equipment. The ASDs were analyzed by XRPD and HPLC to determine if the Gamma irradiation changed the ivermectin polymorphic form and degradation respectively.
The assay of the ivermectin on the amorphous solid dispersion was performed before, 1 week and 1 month after the application of Gamma irradiation. Preliminary trials of sterilization by gamma irradiation were successfully completed in the solid material of ivermectin alone and ASDs.
(§1) Table 4 provides a summary of the characterizations (HPLC, XRPD and particle size) of ivermectin and of the amorphous solid dispersion of Example 1 (PVP-VA 64), Example 2 (PVP K-30) and Example 3 (HPMC E4M) prior to irradiation and after irradiation. Preliminary trials of sterilization by gamma irradiation were successfully completed in the solid material of ivermectin alone and ASDs. The amorphous form of the ASDs was not affected by gamma irradiation.

[2] = Particle size D90 by laser diffraction before and after Gamma irradiation; assay type: physicochemical
Description: (§2) The solid-state characterization of the spray dried amorphous ivermectin solid dispersions of Examples 1-3 prepared by the traditional spray drying process were evaluated by Scanning Electronic Microscopy (SEM) (Phenom ProX SEM), Differential Scanning calorimetry (DSC) (TA Instruments), Laser diffraction (Sympatec HELOS/RODOS, Germany) employing the rotary feeder and R1 lens, X-Ray Powder Diffraction (Pan Analytical), Raman Spectroscopy (Witec) and High Performance Liquid Chromatography (Waters). FIG. 1 is a scanning electron microscopic picture of the amorphous solid dispersion of Example 1 (ivermectin and PVP-VA-64). FIG. 2 is a scanning electron microscopic image of the amorphous solid dispersion of Example 2 (ivermectin and PVP K-30). FIG. 3 is a scanning electron microscopic picture of the amorphous solid dispersion of Example 3 (ivermectin and HPMC E4M). FIGS. 1-3 are at a magnification of 6000×. FIGS. 4-6 are thermograms of the ASD of Examples 1-3 obtained by differential scanning calorimetry. FIGS. 7-9 are diffractograms of the ASD of Examples 1-3. […] FIGS. 10 and 11 are Raman spectrums for ivermectin, the polymer PVP VA-64 and mixtures of the two (FIG. 10) and ivermectin, the polymer PVP K-30 and mixtures of the two (FIG. 11). […] FIG. 10 includes ratios of ivermectin to PVP VA-64 at ratios of 1:1 and 1:2 and FIG. 11 includes ratios of ivermectin to PVP K-30 at ratios of 1:1, 1:3, and 2:3.
as §1

[3] = XRPD polymorphic form before and after Gamma irradiation; assay type: physicochemical
Description: as §2
The inventors have also determined that use of the polymer in the amorphous solid dispersion of ivermectin protects the ivermectin from degradation that occurs during Gamma irradiation, heat sterilization or e-beam sterilization. Ophthalmic formulations must be sterilized and Gamma irradiation, heat sterilization or e-beam sterilization are suitable methods for sterilization because other methods, such as filtration, are not suitable for a suspension formulation. […] The ASDs were analyzed by XRPD and HPLC to determine if the Gamma irradiation changed the ivermectin polymorphic form and degradation respectively. […]

demodex = details: oral ivermectin, 19 subjects, cited from earlier work
[4] = system: TNF-α, IL-1, and IL-6 (lipopolysaccharide (LPS)-induced cytokines); details: through NF-κB; cited from earlier work
[5] = Visual solubility in artificial sebum; assay type: physicochemical; details: 24 h of mixing with a magnetic stirrer at room temperature, same amount of ivermectin
Description: Some polymers have a capacity to improve the solubility of the ivermectin in the local region of application.
The sebum with the amorphous ivermectin dispersions remains clear (solubilized) after 24 h of mixing with a magnetic stirrer at room temperature, and without polymers the sebum continued opaque (ivermectin in suspension—not solubilized) after the addiction of the both forms of ivermectin (crystalline or amorphous).

CC[C@H](C)[C@H]1O[C@]2(CC[C@@H]1C)C[C@@H]1C[C@@H](C/C=C(\C)[C@@H](O[C@H]3C[C@H](OC)[C@@H](O[C@H]4C[C@H](OC)[C@@H](O)[C@H](C)O4)[C@H](C)O3)[C@@H](C)/C=C/C=C3\CO[C@@H]4[C@H](O)C(C)=C[C@@H](C(=O)O1)[C@]34O)O2 [IVM, ivermectin]
% API (After: 1 month) ([1]; HPLC, 1 month after Gamma irradiation at 25 kGy for 22 hours): 84.3% | % API (After: 1 week) ([1]; HPLC, 1 week after Gamma irradiation at 25 kGy for 22 hours): 86.9% | % API (Before) ([1]; HPLC, before Gamma irradiation): 95.2% | HPLC (Assay IVM) After irradiation (T = 1 month) ([1]; Table 4, 1 month after Gamma irradiation): 84.26% | HPLC (Assay IVM) After irradiation (T = 1 week) ([1]; Table 4, 1 week after Gamma irradiation): 86.9% | HPLC (Assay IVM) Before irradiation ([1]; Table 4, before irradiation): 95.2% | % API degraded ([1]; before vs 1 month after Gamma irradiation): 10.9% | D90 After irradiation (T = 1 week) ([2]; 1 week after Gamma irradiation): 2.53 μm | D90 After irradiation (2 M) ([2]; after Gamma irradiation, cells marked (2 M) in the T = 1 month column): 2.41 (2 M) μm | D90 Before irradiation ([2]; before irradiation): 2.66 μm | XRPD After irradiation (T = 1 month) ([3]; 1 month after Gamma irradiation): Amorphous | XRPD After irradiation (T = 1 week) ([3]; 1 week after Gamma irradiation): Amorphous | XRPD Before irradiation ([3]; before irradiation): Amorphous | Eradication of the demodex (demodex; by month 3 of treatment): All subjects had eradication of the demodex | Improvement in signs of ocular inflammation (demodex): all subjects had an improvement | Symptomatic improvement (demodex): All but two subjects improved symptomatically | Change in TNF-α, IL-1, and IL-6 [4]: decrease

ivermectin [Crystalline ivermectin]
Solubility (visual inspection) [5]: opaque

Reference: patent US20230165798A1, “MACROCYCLIC LACTONE FORMULATIONS, METHODS OF THEIR PREPARATION AND USE OF THE FORMULATIONS IN TREATING PATHOLOGIES SECONDARY TO OPHTHALMIC PARASITES” (Hovione Scientia, priority 2018, published 2023)
